Results on 1 compound are retold here after patent US8334316B2, “Substituted organosulfur compounds and methods of using thereof” (ACEA Biosciences, Inc., priority 2004, dated 2012).

For this assay, the system named is microtubules in COS cells. Briefly: Microtubule network in cultured COS cells (anti-tubulin immunofluorescence, confocal microscopy). It is filed as cell-based. The protocol: Cell Culture and Immunocytochemistry. COS cells were grown in DMEM media supplemented with non-essential amino acids, 10% FBS, antibiotic-antimycotic (Gibco BRL) at 37° C. and 5.5% CO2. […] Cells were then rinsed once with warm PBS, fixed with cold methanol, rinsed again in PBS and blocked overnight at 4° C. in PBT (PBS, 1% BSA, 0.5% Triton X-100). All subsequent stains and washes were done in PBT at room temperature unless stated otherwise. Cells were stained with the anti-tubulin mouse antibody DM-1 at 1:1000 for 1 hour, washed four times for 15 minutes each and then treated with Cy-3 conjugated goat anti mouse antibody at 1:100 for 1 hour in the dark. Next, samples were washed four times for 15 minutes each in PBT in the dark followed by a final 15 minute wash in PBS in the dark. Samples were then viewed by laser scanning confocal microscopy.

In the case of `Cc1cccc(CSSSCc2cccc(C)c2)c1` [ACEA100116, di(m-methylbenzyl)trisulfide], the Microtubule network appearance result (4 hours exposure) was “at the two higher concentrations, microtubules appear very short and abnormal”. The “Microtubule network / cell appearance” value (24 hours, 1 uM) was “appear relatively normal”. Moreover, the Cell viability entry (24 hours, 3 uM or 9 uM) is “essentially all cells treated with 3 uM or 9 uM were dead”.
